Where a SMILES comes first, the peptide text is derived from it.
What was measured:
[1] = molecular target: T1, KRAS-G12V-JAK1 interaction (Homo sapiens, UniProt P01116, G12V); assay: TR-FRET assay of the KRAS-G12V/JAK1 interaction in HEK293T lysate; format: binding; settings: FIG. 2B, 2D
Experimental: TR-FRET titration assay was performed with HEK293T lysate that had been co-transfected with His-KRAS-G12V and Flag-JAK1. TR-FRET signals were recorded upon treatment with the synthetic peptide 8-mer (RasKi) or the 9-mer control (0 to 50 μM).
Cell lysate from HEK293T cells co-expressing GST-KRAS-G12V and Venus-Flag-JAK1 was treated with the synthetic peptide 8-mer WT ([…], SEQ ID NO: 1) or an 8-mer with K606E mutation. A panel of mutations in 8-mer (5 μM) were tested including M603A ([…], SEQ ID NO: 2).

[2] = molecular target: T1, KRAS-G12V-JAK1 interaction; assay: GST-affinity pull-down assay under endogenous conditions; format: binding; set-up: endogenous in cells; settings: FIG. 2F
[3] = test system: HLA-A2+ KRAS WT/G12V cancer cells; assay: anti-NY-ESO-1 CD8+ T cell-mediated killing, CellTiter Blue viability; format: cell-based; settings: under T-cell stimulation; FIG. 5A-5F
Experimental: The lentivirus-transduced HLA-A2+ parental KRAS WT cells, SW48-A2+ and their KRAS G12V knock-in isogenic cells were co-cultured with anti-NY-ESO-1 CD8+ T cells, or treated with RasKi, RasKi-K606E, or in combinations as indicated. The cell viability after treatment was measured using CellTiter Blue™ reagent. The growth inhibition was normalized to the untreated control.
The lentivirus-transduced HLA-A2+ patient derived KRAS WT colon cancer cells (SW48-A2+, LIM1215-A2+ and Caco-2-A2+) and KRASG12V colon cancer cells (SW403-A2+, SW480-A2+ and SW620-A2+) were co-cultured with anti-NY-ESO-1 CD8+ T cells, or treated with RasKi, RasKi-K606E, or in combinations as indicated. The cell viability after treatment was measured using CellTiter Blue™ reagent. The growth inhibition was normalized to the untreated control.
The G12V isogenic cells (SW48G12V-A2+, LIM1215G12V-A2+ and H838G12V-A2+) and were co-cultured with anti-NY-ESO-1 CD8+ T cells and treated with RasKi, or in addition with JAK inhibitor (JAKi) or IFNγ receptor antagonist (IFNγRa) as indicated. The cell viability after treatment was measured using CellTiter Blue™ reagent. The growth inhibition was normalized to the untreated control. Each dot represents an individual cell line.
A gene-engineered CD8+ T cell was produced to specifically target an antigen expressed in an HLA-class I-restricted manner. […]

[4] = test system: KRAS isogenic cell lines SW48, LIM1215, H838; assay: IFNγ-induced cell death in KRAS-WT and G12V isogenic cells; format: cell-based; settings: FIG. 4A; for cell killing without IFNγ: no IFNγ
Text: Bar graphs show the cell death of three pairs of KRAS isogenic cell lines SW48, LIM1215, H838 under different treatment conditions.
Bar graphs show cell death in three KRAS isogenic G12V cell lines in response to IFNγ stimulation and 8-mer peptide, with or without treatment with a JAK1 inhibitor or an IFNγ-receptor antagonist.

[5] = test system: KRAS isogenic cell lines SW48, LIM1215, H838; assay: NK92 cell-induced death of KRAS-WT and G12V isogenic cells; format: cell-based; settings: FIG. 4C
Text: Dose-dependent killing curves of RasKi/8-mer peptide are shown for KRAS WT and G12V isogenic SW48, LIM1215, H838 cell lines with or without NK92 cell stimulation from cell viability readouts.
RasKi dose-dependent cell death curves were established for KRAS isogenic cell lines treated with JAK1 inhibitor or IFNγ-receptor antagonist in response to NK92 cell stimulation. Bar graphs show integrated results from area under curve (AUC) data of each treatment condition.

[6] = test system: IFN-γ stimulated STAT1 transcription; assay: STAT1 transcription dual-luciferase assay in HEK293T cells; format: cell-based; settings: JAK1 and KRAS-G12V co-expressed with RasKi, 1 ng/ml IFN-γ 18 hours, FIG. 3A
Experimental: STAT1 transcriptional activity was tested in HEK293T cells with a dual-luciferase assay. Luciferase activity was measured upon co-expression of JAK1 and KRAS WT, G12V, or G12V with 8-mer. Fold of Control (FOC) with IFN-γ stimulation was calculated comparing to samples without IFN-γ stimulation. Cells were treated with 1 ng/ml IFN-γ for 18 hours after 24 hours of transfection. Dual-luciferase assays were performed, and relative luciferase activity was measured normalized to Renilla luciferase control.

JAK-STAT pathway [7] = assay: IFN-γ stimulated signaling under endogenous conditions in SW48 KRAS isogenic cell lines (luciferase, Western blot, RT-qPCR); format: cell-based; settings: SW48 G12V cells, IFN-γ 1 ng/ml 18 hours, FIG. 3E
Experimental: FOC (Fold of control) of STAT1 transcriptional activity was calculated in SW48 (KRAS isogenic colon cancer) WT and G12V cell lines with IFN-γ stimulation comparing to that without IFN-γ stimulation. RasKi was transduced into G12V cells by lentivirus. Cells were treated with IFN-γ (1 ng/ml) for 18 hours after 24 hours of transduction. Dual-luciferase assays were performed, and relative luciferase activity was measured, normalized to Renilla luciferase control.
Western Blot was performed to detect changes in the JAK-STAT pathway in SW48 cell lines (KRAS isogenic colon cancer with G12V), with or without IFN-γ (1 ng/ml) for 30 minutes. FOC bar graphs show STAT1/3 phosphorylation, IRF1 and TAP1 expression in three groups after IFN-γ stimulation comparing to basal level.
Expression of TAP1, IRF1, PD-L1 mRNA was normalized to GAPDH in SW48 cell lines as detected using RT-qPCR (reverse transcription-quantitative polymerase chain reaction). Cells were treated with IFN-γ (1 ng/ml) for 18 hours.

JAK-STAT pathway [8] = assay: Western blot of JAK-STAT pathway signaling in HEK293T cells; format: cell-based; settings: HEK293T with KRAS-G12V, FIG. 3B
Experimental: Western Blot was performed to detect the JAK-STAT pathway signaling change in HEK293T cells with overexpressed JAK1 along with KRAS-WT, G12V, or G12V with 8-mer, with or without IFN-γ stimulation (1 ng/ml, 30 minutes). FOC bar graphs show the levels of phosphorylated STAT1 and STAT3 phosphorylation, and the expression of IRF1 and TAP1 after IFN-γ stimulation in comparison to that without stimulation.

[9] = cell permeability of the peptide; format: cell-based
[10] = molecular target: T1, KRAS-G12V-JAK1 interaction; assay: GST-affinity pull-down assay; format: binding

disruption of the JAK1/KRAS-G12V interaction [1]: effectively disrupt
disruption of the KRAS-G12V/JAK1 interaction at endogenous level [2]: effectively disrupt the interaction
cell permeability [9]: cell permeable
competition with JAK1 full length for binding to KRAS-G12V ([10]; GST pull-down, FIG. 2C, 2E): can compete
binding to KRAS-G12V ([10]; JAK1 truncation mapping): sufficient for KRAS-G12V binding
SMILES: CSCC[C@H](N)C(=O)N[C@@H](CC(=O)O)C(=O)N[C@@H](Cc1ccc(O)cc1)C(=O)N[C@@H](CCCCN)C(=O)N[C@@H](CC(=O)O)C(=O)N[C@@H](CC(=O)O)C(=O)N[C@@H](CCC(=O)O)C(=O)NCC(=O)O [RasKi] (H-MDYKDDEG-OH; N-terminus and C-terminus assumed)
T-cell killing in G12V cells [3]: enhanced T-cell killing
cell killing without IFNγ [4]: no difference
cell killing without IFNγ ([4]; listed as 8-mer): No cell killing effect
IFNγ-induced killing effect in cells with KRAS-G12V ([4]; with IFNγ, compared to KRAS-WT cells): drastically increased
killing of cells with WT KRAS together with NK92 cells ([5]; KRAS WT cells, NK92 co-culture): but not cells with WT KRAS
killing of cancer cells with KRAS-G12V together with NK92 cells ([5]; KRAS-G12V cells, NK92 co-culture): synergized with NK92 cells to induce dose-dependent killing
viability of cancer cells, peptide per se ([5]; WT or G12V cells, without NK92 cells): had no effect
STAT1 transcriptional activity upon IFNγ treatment [6]: completely reversed the KRAS-G12V effect
expression of mRNAs for IRF1, TAP1, and PD-L1 (JAK-STAT pathway [7]): increased
STAT1/3 phosphorylation (JAK-STAT pathway [8]; IFN-γ 1 ng/ml, 30 minutes): increased
expression of IRF1 and TAP1 proteins (JAK-STAT pathway [8]; IFN-γ stimulation): increased

From patent US12577278B2, “KRAS G12V mutant binds to JAK1, inhibitors, pharmaceutical compositions, and methods related thereto” (Emory University, priority 2019, dated 2026)
